Experimental data as given in PubChem BioAssay (NCI).
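Following 48 hours of exposure in 96-well plates, responses at five concentrations were used to interpolate endpoints linearly. TGI is the concentration that stops growth completely.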

How the values were obtained:
Assay in all cases: NCI-60 cell line screen, 48 h
[1] = test system: HOP-92 NSCLC
[2] = test system: HOP-62 NSCLC
[3] = test system: MALME-3M melanoma
[4] = test system: SK-MEL-5 melanoma
[5] = test system: OVCAR-5 ovarian
[6] = test system: SF-539 CNS
[7] = test system: TK-10 renal
[8] = test system: MDA-MB-231 breast
[9] = test system: MDA-N
[10] = test system: HT29 colon
[11] = test system: CAKI-1 renal
[12] = test system: ACHN renal
[13] = test system: EKVX NSCLC
[14] = test system: K-562 leukemia
[15] = test system: SK-MEL-28 melanoma
[16] = test system: SF-268 CNS
[17] = test system: SF-295 CNS
[18] = test system: OVCAR-4 ovarian
[19] = test system: BT-549 breast
[20] = test system: NCI/ADR-RES ovarian
[21] = test system: OVCAR-8 ovarian
[22] = test system: HCT-15 colon
[23] = test system: NCI-H460 lung
[24] = test system: HCC-2998 colon
[25] = test system: HCT-116 colon
[26] = test system: SW-620 colon
[27] = test system: MDA-MB-435
[28] = test system: IGROV1 ovarian
[29] = test system: 786-0 renal
[30] = test system: SK-MEL-2 melanoma
[31] = test system: OVCAR-3 ovarian
[32] = test system: SK-OV-3 ovarian
[33] = test system: NCI-H522 lung
[34] = test system: MOLT-4 leukemia
[35] = test system: NCI-H226 lung
[36] = test system: T-47D breast
[37] = test system: U251 CNS
[38] = test system: COLO 205 colon
[39] = test system: DU-145 prostate
[40] = test system: M14 melanoma
[41] = test system: SNB-75 CNS
[42] = test system: NCI-H23 lung
[43] = test system: A549 NSCLC
[44] = test system: UO-31 renal
[45] = test system: UACC-62 melanoma
[46] = test system: MCF7 breast
[47] = test system: PC-3 prostate
[48] = test system: HS 578T breast
[49] = test system: KM12 colon
[50] = test system: RPMI-8226 leukemia
[51] = test system: HL-60(TB) leukemia
[52] = test system: SN12C renal
[53] = test system: UACC-257 melanoma
[54] = test system: SNB-19 CNS
[55] = test system: LOX IMVI melanoma
[56] = test system: SR leukemia
[57] = test system: CCRF-CEM leukemia
[58] = test system: RXF 393 renal
[59] = test system: A498 renal

Structure (SMILES): CCOc1cc(C2SCC(=O)N2c2ccc(Oc3ccc(Cl)cc3)c(Cl)c2)ccc1O (stereo unspecified)
- TGI [1]: 33.7 µM
- TGI [2]: 40.8 µM
- TGI [3]: 32.4 µM
- TGI [4]: 31.5 µM
- TGI [5]: 53.3 µM
- TGI [6]: 32.5 µM
- TGI [7]: 34.2 µM
- TGI [8]: 36 µM
- TGI [9]: 41.9 µM
- TGI [10]: 31.8 µM
- TGI [11]: 32.6 µM
- TGI [12]: 31.2 µM
- TGI [13]: 33.4 µM
- TGI [14]: > 100 µM
- TGI [15]: 38.2 µM
- TGI [16]: 30.9 µM
- TGI [17]: 34.1 µM
- TGI [18]: 31.1 µM
- TGI [19]: 31.5 µM
- TGI [20]: 36.9 µM
- TGI [21]: 38.2 µM
- TGI [22]: 37 µM
- TGI [23]: 39.1 µM
- TGI [24]: 35.8 µM
- TGI [25]: 25.1 µM
- TGI [26]: 37.7 µM
- TGI [27]: 42 µM
- TGI [28]: 32 µM
- TGI [29]: 45.8 µM
- TGI [30]: 32.7 µM
- TGI [31]: 30.6 µM
- TGI [32]: 37.3 µM
- TGI [33]: 28.1 µM
- TGI [34]: 64.4 µM
- TGI [35]: 31.1 µM
- TGI [36]: 40.4 µM
- TGI [37]: 35.7 µM
- TGI [38]: 41.3 µM
- TGI [39]: 31.3 µM
- TGI [40]: 56.1 µM
- TGI [41]: 37.3 µM
- TGI [42]: 32.3 µM
- TGI [43]: 39.7 µM
- TGI [44]: 21.7 µM
- TGI [45]: 30.3 µM
- TGI [46]: 56.4 µM
- TGI [47]: 33.4 µM
- TGI [48]: 37.1 µM
- TGI [49]: 31.8 µM
- TGI [50]: 80.1 µM
- TGI [51]: 47 µM
- TGI [52]: 59.3 µM
- TGI [53]: 33.3 µM
- TGI [54]: 34.8 µM
- TGI [55]: 38.7 µM
- TGI [56]: 25.2 µM
- TGI [57]: 49.5 µM

Structure (SMILES): O=C1/C(=C\Oc2ccc(F)cc2)N2CCC1CC2
- TGI [1]: > 100 µM
- TGI [2]: > 100 µM
- TGI [3]: > 100 µM
- TGI [4]: > 100 µM
- TGI [5]: > 100 µM
- TGI [6]: > 100 µM
- TGI [7]: > 100 µM
- TGI [8]: > 100 µM
- TGI [9]: > 100 µM
- TGI [10]: > 100 µM
- TGI [11]: > 100 µM
- TGI [12]: > 100 µM
- TGI [58]: > 100 µM
- TGI [13]: > 100 µM
- TGI [14]: > 100 µM
- TGI [15]: > 100 µM
- TGI [16]: > 100 µM
- TGI [17]: > 100 µM
- TGI [59]: > 100 µM
- TGI [18]: > 100 µM
- TGI [19]: > 100 µM
- TGI [20]: > 100 µM
- TGI [21]: > 100 µM
- TGI [22]: > 100 µM
- TGI [25]: > 100 µM
- TGI [27]: > 100 µM
- TGI [28]: > 100 µM
- TGI [29]: > 100 µM
- TGI [30]: > 100 µM
- TGI [31]: > 100 µM
- TGI [32]: > 100 µM
- TGI [33]: > 100 µM
- TGI [34]: > 100 µM
- TGI [35]: > 100 µM
- TGI [36]: > 100 µM
- TGI [37]: > 100 µM
- TGI [38]: > 100 µM
- TGI [39]: 36.7 µM
- TGI [40]: > 100 µM
- TGI [41]: > 100 µM
- TGI [42]: > 100 µM
- TGI [43]: > 100 µM
- TGI [44]: > 100 µM
- TGI [45]: > 100 µM
- TGI [46]: > 100 µM
- TGI [47]: > 100 µM
- TGI [48]: > 100 µM
- TGI [50]: > 100 µM
- TGI [51]: > 100 µM
- TGI [52]: > 100 µM
- TGI [53]: > 100 µM
- TGI [54]: > 100 µM
- TGI [55]: > 100 µM
- TGI [56]: 63.1 µM
- TGI [57]: > 100 µM

Structure (SMILES): CCCCCCCCCCCCCCCCCc1cccc(OCOCCOC)c1C(=O)O
- TGI [1]: 35.8 µM
- TGI [2]: 38.9 µM
- TGI [3]: 22.2 µM
- TGI [4]: 39.1 µM
- TGI [5]: 35 µM
- TGI [6]: 30.1 µM
- TGI [7]: 34.3 µM
- TGI [8]: 37.4 µM
- TGI [9]: 38.8 µM
- TGI [10]: 35.7 µM
- TGI [11]: 35.1 µM
- TGI [12]: 35.2 µM
- TGI [58]: 37.7 µM
- TGI [13]: 38.7 µM
- TGI [14]: > 83 µM
- TGI [15]: 38.2 µM
- TGI [16]: 34.5 µM
- TGI [17]: 35.5 µM
- TGI [59]: 32.2 µM
- TGI [18]: 34.8 µM
- TGI [19]: 31.6 µM
- TGI [20]: 28.6 µM
- TGI [21]: 31.7 µM
- TGI [22]: 41.2 µM
- TGI [23]: 41 µM
- TGI [24]: 36 µM
- TGI [25]: 39.1 µM
- TGI [26]: 44.3 µM
- TGI [27]: 40.9 µM
- TGI [28]: 33.5 µM
- TGI [29]: 35.2 µM
- TGI [30]: 39.2 µM
- TGI [31]: 36.9 µM
- TGI [32]: 28 µM
- TGI [33]: 30 µM
- TGI [34]: 44.1 µM
- TGI [35]: 32.3 µM
- TGI [36]: 35.2 µM
- TGI [37]: 41.6 µM
- TGI [38]: 39.7 µM
- TGI [39]: 33.2 µM
- TGI [40]: 35.9 µM
- TGI [41]: 31.1 µM
- TGI [42]: 30.1 µM
- TGI [43]: 42.1 µM
- TGI [44]: 31.7 µM
- TGI [45]: 32.4 µM
- TGI [46]: 43.2 µM
- TGI [47]: 34.4 µM
- TGI [48]: 42.6 µM
- TGI [49]: 34.1 µM
- TGI [50]: > 72.7 µM
- TGI [51]: 50.8 µM
- TGI [52]: 46.6 µM
- TGI [53]: 36.6 µM
- TGI [54]: 40.6 µM
- TGI [55]: 61.8 µM
- TGI [56]: 50 µM
- TGI [57]: > 77.5 µM
